This is an account of results in patent US8932610B2, “Aqueous clear solutions of fluocinolone acetonide for treatment of otic inflammation” (Laboratorios Salvat, S.A., priority 2010, dated 2015).

Where a name gives a salt, the structure may show the parent alone.

Data set [1] is described as follows: Concentration of active ingredient before and after filtration through 0.22 μm filter. In kind it is physicochemical.
For data set [2] the following is noted: cited from earlier work.
Where [3] appears, read: Batch 1, after filtration (0.22 μm filter).
Setting [4] is: Batch 1, before filtration (0.22 μm filter).
Where [5] appears, read: Batch 2, after filtration (0.22 μm filter).
Setting [6] is: Batch 2, before filtration (0.22 μm filter).

For `O=C(O)c1cn(C2CC2)c2cc(N3CCNCC3)c(F)cc2c1=O` [Ciprofloxacin HCl], the “% of theoretical” value in data set [1] (setting [3]) is 97.7%; in data set [1] (setting [4]) it was 98.0%; in data set [1] (setting [5]) it was 98.0%; in data set [1] (setting [6]) it was 98.0%. The Concentration in data set [1] (setting [3]) is 0.341%; in data set [1] (setting [4]), 0.342%; in data set [1] (setting [5]) it was 0.342%; in data set [1] (setting [6]), 0.342%.

For the compound `CC1(C)O[C@@H]2C[C@H]3[C@@H]4C[C@H](F)C5=CC(=O)C=C[C@]5(C)[C@@]4(F)[C@@H](O)C[C@]3(C)[C@]2(C(=O)CO)O1` [Fluocinolone Acetonide], the Solubility in water result in data set [2] is recorded as “virtually insoluble in water”. For the same compound, the “% of theoretical” value in data set [1] (setting [3]), in data set [1] (setting [4]), in data set [1] (setting [5]) and in data set [1] (setting [6]) was 100.0% in each case. The Concentration in data set [1] (setting [3]), in data set [1] (setting [4]), in data set [1] (setting [5]) and in data set [1] (setting [6]) was 0.025% in each case.
